Results taken from patent US9745325B2, “Fused heterocyclic compound” (Takeda Pharmaceutical Company Limited, priority 2014, dated 2017).
Where a name gives a salt, the structure may show the parent alone.

Legend:
[1] = target: T1, CDK8/CycC (Homo sapiens, UniProt P49336); assay: CDK8 inhibitory activity (Kinase Tracer-236 / Eu-anti-GST fluorescence assay); type: binding; set-up: Percent inhibition of CDK8 activity (%): concentration or dose not given beside the values; settings: for Percent inhibition of CDK8 activity (%): test compound concentration given as '1 1.1.1\4' [sic]
T1 construct: purchased Carna Biosciences
Method: (§1) The compound of the present invention was evaluated for its CDK8 inhibitory activity and CDK19 inhibitory activity by the following method. […] The primary diluted solution was dispensed in the amount of 2 μL/well to a 384-well plate, and then, a mixed solution of Eu^3+ Cryptate conjugated mouse monoclonal antibody anti-glutathione S-transferase (Cisbio) diluted 267-fold with an assay buffer and 60 nM Kinase Tracer-236 (Life technologies) was added thereto at 2 μL/well. […] After the addition, the plate was left standing at room temperature for 1 hour, and then, the fluorescence intensity (excitation wavelength 320 nm, fluorescence wavelength 615 nm, 665 nm, delay time 50 μsec) was measured using ann EnVision plate reader (PerkinElmer). The percent inhibition of CDK8 or CDK19 activity by the test compound can be calculated according to the following formula, wherein the fluorescence intensity of a reaction solution in the absence of compound is defined as the control, and the fluorescence intensity of a reaction solution in the presence of 10 μM of control compound is defined as the blank.

[2] = target: T2, CDC2L6/CycC (CDK19) (Homo sapiens, UniProt Q9BWU1); assay: CDK19 inhibitory activity (Kinase Tracer-236 / Eu-anti-GST fluorescence assay); type: binding; set-up: Percent inhibition of CDK19 activity (%): concentration or dose not given beside the values; settings: for Percent inhibition of CDK19 activity (%): test compound concentration given as '1 1.1.1\4' [sic]
T2 construct: purchased Carna Biosciences Inc
Method: as §1

[3] = test system: human multiple myeloma RPMI8226 cells; assay: Inhibitory activity against human multiple myeloma RPMI8226 cell growth (CellTiter-Glo); type: cell-based; settings: Homo sapiens, RPMI-8226, 192 h, 1 μM test compound, cultured for 8 days; read-out: Percent inhibition of RPMI8226 cell growth (%)
Method: The compound of the present invention was evaluated for its inhibitory activity against human multiple myeloma RPMI8226 cell growth by the following method.
A suspension of human multiple myeloma RPMI8226 cells (purchased from the Health Protection Agency) was inoculated at 40 μL (300 cells/well) to a 384-well plate and cultured at 37° C. for 1 day in a 5% CO2 incubator. After the culture, each test compound solution was added thereto at a test concentration of 1 μM using TECAN D300, and the cells were further cultured for 8 days. After the culture, CellTiter-Glo™ Luminescent Cell Viability Assay reagent (Promega) was added at 40 μL/well to a 384-well plate, and the amount of luminescence was measured using a luminometer. Inhibitory activity against human multiple myeloma RPMI8226 cell growth (percent inhibition (%)) of the test compound was calculated according to the following formula, which is based on the hypothesis that the amount of residual ATP reflects the number of cells. In this formula, 100% control represents the amount of luminescence from a well with only 0.1% DMSO added. Percent inhibition (%)=(1−(amount of luminescence of the test compound)÷(100% control))×100

T2 sequence (Q9BWU1 whole entry): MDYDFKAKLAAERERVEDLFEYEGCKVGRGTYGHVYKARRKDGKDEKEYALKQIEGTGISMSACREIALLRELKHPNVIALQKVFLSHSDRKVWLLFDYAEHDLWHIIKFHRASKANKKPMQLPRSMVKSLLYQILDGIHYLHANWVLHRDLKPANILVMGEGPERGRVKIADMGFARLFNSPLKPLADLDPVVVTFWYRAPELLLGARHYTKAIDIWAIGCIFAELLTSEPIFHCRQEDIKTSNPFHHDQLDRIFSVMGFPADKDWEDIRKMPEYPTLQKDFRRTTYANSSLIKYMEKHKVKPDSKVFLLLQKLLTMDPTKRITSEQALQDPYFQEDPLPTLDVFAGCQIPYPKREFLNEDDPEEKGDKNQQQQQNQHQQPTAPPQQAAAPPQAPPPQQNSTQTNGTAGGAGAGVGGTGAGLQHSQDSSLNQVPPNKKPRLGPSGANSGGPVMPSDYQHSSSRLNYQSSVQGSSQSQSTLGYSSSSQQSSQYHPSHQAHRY
T2 sequence (P24863 whole entry partner): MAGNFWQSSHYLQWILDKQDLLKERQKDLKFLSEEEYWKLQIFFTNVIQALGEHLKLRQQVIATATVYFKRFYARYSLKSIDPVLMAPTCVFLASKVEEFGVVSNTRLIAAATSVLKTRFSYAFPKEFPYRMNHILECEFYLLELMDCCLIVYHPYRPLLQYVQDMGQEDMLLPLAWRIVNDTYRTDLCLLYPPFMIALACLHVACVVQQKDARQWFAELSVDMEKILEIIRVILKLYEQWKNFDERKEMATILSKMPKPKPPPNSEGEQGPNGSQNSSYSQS
T1 sequence (P49336 whole entry): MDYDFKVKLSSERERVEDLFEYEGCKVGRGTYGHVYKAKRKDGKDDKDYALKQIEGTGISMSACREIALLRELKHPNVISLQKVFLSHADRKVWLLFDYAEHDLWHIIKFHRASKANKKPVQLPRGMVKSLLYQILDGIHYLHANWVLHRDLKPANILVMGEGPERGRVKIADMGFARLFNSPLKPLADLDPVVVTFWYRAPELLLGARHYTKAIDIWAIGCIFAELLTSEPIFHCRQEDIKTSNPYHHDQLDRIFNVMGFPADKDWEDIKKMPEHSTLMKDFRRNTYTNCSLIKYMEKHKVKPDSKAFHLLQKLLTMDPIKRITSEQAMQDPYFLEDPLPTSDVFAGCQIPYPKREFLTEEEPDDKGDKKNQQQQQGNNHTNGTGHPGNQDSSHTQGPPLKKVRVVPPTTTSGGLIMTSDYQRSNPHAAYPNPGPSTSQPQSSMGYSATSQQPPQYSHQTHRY
T1 sequence (P24863 whole entry partner): as the sequence (P24863 whole entry partner) above

Percent inhibition of CDK8 activity (%) [1] [%]	Percent inhibition of CDK19 activity (%) [2] [%]	IC50 ([1]; control compound, for reference, read-out: CDK8 inhibition IC50) [µM]	IC50 ([2]; control compound, for reference, read-out: CDK19 inhibition IC50) [µM]	Compound	inhibition at 1 µM [3] [%]
100	103			NC(=O)c1sc(Oc2ccc(Br)cc2)c2c1CCc1cnsc1-2 [Example 1, 8-(4-Bromophenoxy)-4,5-dihydrothieno[3,4-g][1,2]benzothiazole-6-carboxamide]	56
97	98			CN(C)C(=O)c1ccc(Oc2sc(C(N)=O)c3c2-c2sncc2CC3)cc1 [Example 4, 8-(4-(Dimethylcarbamoyl)phenoxy)-4,5-dihydrothieno[3,4-g][1,2] benzothiazole-6-carboxamide]	61
100	101			Cc1ncccc1Oc1sc(C(N)=O)c2c1-c1sncc1CC2 [Example 7, 8-((2-Methylpyridin-3-yl)oxy)-4,5-dihydrothieno[3,4-g][1,2]benzothiazole-6-carboxamide]	69
96	101			NC(=O)c1sc(Oc2ccc(Cl)nc2)c2c1CCc1cnsc1-2 [Example 10, 8-((6-Chloropyridin-3-yl)oxy)-4,5-dihydrothieno[3,4-g][1,2]benzothiazole-6-carboxamide]	60
96	99			N#Cc1ccc(Oc2sc(C(N)=O)c3c2-c2sncc2CC3)cn1 [Example 11, 8-((6-Cyanopyridin-3-yl)oxy)-4,5-dihydrothieno[3,4-g][1,2]benzothiazole-6-carboxamide]	71
100	97			NC(=O)c1sc(Oc2ccc(C(=O)O)nc2)c2c1CCc1cnsc1-2 [Example 12, 5-((6-Carbamoyl-4,5-dihydrothieno[3,4-g][1,2]benzothiazol-8-yl)oxy)pyridine-2-carboxylic acid]	65
92	97			N=C(N)c1ccc(Oc2sc(C(N)=O)c3c2-c2sncc2CC3)cn1 [Example 14, 8-((6-Carbamimidoylpyridin-3-yl)oxy)-4,5-dihydrothieno[3,4-g][1,2] benzothiazole-6-carboxamide]	65
100	102			CCOC(=O)c1ccc(Oc2sc(C(N)=O)c3c2-c2sncc2CC3)cn1 [Example 15, Ethyl 5-((6-carbamoyl-4,5-dihydrothieno[3,4-g][1,2]benzothiazol-8-yl)oxy)pyridine-2-carboxylate]	64
98	99			NC(=O)c1sc(Oc2ccc(Br)nc2)c2c1CCc1cnsc1-2 [Example 16, 8-((6-Bromopyridin-3-yl)oxy)-4,5-dihydrothieno[3,4-g][1,2]benzothiazole-6-carboxamide]	59
102	101			CNC(=O)c1ccc(Oc2sc(C(N)=O)c3c2-c2sncc2CC3)cn1 [Example 17, 8-((6-(Methylcarbamoyl)pyridin-3-yl)oxy)-4,5-dihydrothieno[3,4-g][1,2]benzothiazole-6-carboxamide]	66
98	93			NC(=O)c1sc(Oc2ccc(C(=O)N3CCOCC3)nc2)c2c1CCc1cnsc1-2 [Example 19, 8-((6-(Morpholin-4-ylcarbonyl)pyridin-3-yl)oxy)-4,5-dihydrothieno[3,4-g][1,2]benzothiazole-6-carboxamide]	53
102	99			CC1(C(=O)Nc2ccc(Oc3sc(C(N)=O)c4c3-c3sncc3CC4)cn2)COC1 [Example 20, 8-((6-(((3-Methyloxetan-3-yl)carbonyl)amino)pyridin-3-yl)oxy)-4,5-dihydrothieno[3,4-g][1,2]benzothiazole-6-carboxamide]	66
106	100			NC(=O)c1sc(Oc2ccc(NC(=O)C3(O)CC3)nc2)c2c1CCc1cnsc1-2 [Example 21, 8-((6-(((1-Hydroxycyclopropyl)carbonyl)amino)pyridin-3-yl)oxy)-4,5-dihydrothieno[3,4-g][1,2]benzothiazole-6-carboxamide]	70
102	104			CC(C)(O)C(=O)Nc1ccc(Oc2sc(C(N)=O)c3c2-c2sncc2CC3)cn1 [Example 22, 8-((6-((2-Hydroxy-2-methylpropanoyl)amino)pyridin-3-yl)oxy)-4,5-dihydrothieno[3,4-g][1,2]benzothiazole-6-carboxamide]	71

Further lines, the compound ahead of its results:

Compound	Percent inhibition of CDK8 activity (%) [1] [%]	Percent inhibition of CDK19 activity (%) [2] [%]	IC50 ([1]; control compound, for reference, read-out: CDK8 inhibition IC50) [µM]	IC50 ([2]; control compound, for reference, read-out: CDK19 inhibition IC50) [µM]	inhibition at 1 µM [3] [%]
N#Cc1ccc(Oc2sc(C(N)=O)c3c2-c2sncc2CC3)cc1 [Example 2, 8-(4-Cyanophenoxy)-4,5-dihydrothieno[3,4-g][1,2] benzothiazole-6-carboxamide]	100	100			58
NC(=O)c1sc(Oc2ccc(C(=O)N3CCOCC3)cc2)c2c1CCc1cnsc1-2 [Example 3, 8-(4-(Morpholin-4-ylcarbonyl)phenoxy)-4,5-dihydrothieno[3,4-g][1,2]benzothiazole-6-carboxamide]	97	99			60
CCCS(=O)(=O)c1ccc(Oc2sc(C(N)=O)c3c2-c2sncc2CC3)cc1 [Example 5, 8-(4-(Propylsulfonyl)phenoxy)-4,5-dihydrothieno[3,4-g][1,2]benzothiazole-6-carboxamide]	99	100			63
CS(=O)(=O)c1cc(Oc2sc(C(N)=O)c3c2-c2sncc2CC3)ccc1C#N [Example 6, 8-(4-Cyano-3-(methylsulfonyl)phenoxy)-4,5-dihydrothieno[3,4-g][1,2]benzothiazole-6-carboxamide]	89	84			46
COCCNC(=O)c1ccc(Oc2sc(C(N)=O)c3c2-c2sncc2CC3)c(C)n1 [Example 25, 8-((6-((2-Methoxyethyl)carbamoyl)-2-methylpyridin-3-yl)oxy)-4,5-dihydrothieno[3,4-g][1,2] benzothiazole-6-carboxamide]	104	100			60
Cc1nc(N(C)C(=O)C2CC2)ccc1Oc1sc(C(N)=O)c2c1-c1sncc1CC2 [Example 26, 8-((6-((Cyclopropylcarbonyl)(methyl)amino)-2-methylpyridin-3-yl)oxy)-4,5-dihydrothieno[3,4-g][1,2]benzothiazole-6-carboxamide]	103	102			66
CNc1ccc(Oc2sc(C(N)=O)c3c2-c2sncc2CC3)c(C)n1 [Example 27, 8-((2-Methyl-6-(methylamino)pyridin-3-yl)oxy)-4,5-dihydrothieno[3,4-g][1,2]benzothiazole-6-carboxamide monohydrochloride]	102	102			81
CC(=O)N(C)c1ccc(Oc2sc(C(N)=O)c3c2-c2sncc2CC3)c(C)n1 [Example 28, 8-((6-(Acetyl(methyl)amino)-2-methylpyridin-3-yl)oxy)-4,5-dihydrothieno[3,4-g][1,2]benzothiazole-6-carboxamide]	101	99			63
Oc1ccc(-c2n[nH]cc2-c2ccc3c(c2)OCCO3)c(O)c1 [control compound, 4-(4-(2,3-dihydro-1,4-benzodioxin-6-yl)-1H-pyrazol-3-yl)benzene-1,3-diol, reference compound]			0.12	0.13	
